Data: US10968210B2, “Diamino-alkylamino-linked arylsulfonamide compounds with selective activity in voltage-gated sodium channels” (Merck Sharp & Dohme Corp., priority 2016, dated 2021)

Key:
[1] = biological target: T1, human Nav 1.5 channels stably expressed in HEK 293 cells (Homo sapiens, UniProt Q14524); assay: IonWorks Quattro automated patch-clamp, inactivated state block of Nav 1.5 (reported as ratio to Nav 1.7 potency); format: cell-based; conditions: selectivity for Nav 1.7 over Nav 1.5, both by IonWorks
T1 construct: expressed in transfected cells; host or cells: HEK 293
T1 sequence (Q14524 whole entry): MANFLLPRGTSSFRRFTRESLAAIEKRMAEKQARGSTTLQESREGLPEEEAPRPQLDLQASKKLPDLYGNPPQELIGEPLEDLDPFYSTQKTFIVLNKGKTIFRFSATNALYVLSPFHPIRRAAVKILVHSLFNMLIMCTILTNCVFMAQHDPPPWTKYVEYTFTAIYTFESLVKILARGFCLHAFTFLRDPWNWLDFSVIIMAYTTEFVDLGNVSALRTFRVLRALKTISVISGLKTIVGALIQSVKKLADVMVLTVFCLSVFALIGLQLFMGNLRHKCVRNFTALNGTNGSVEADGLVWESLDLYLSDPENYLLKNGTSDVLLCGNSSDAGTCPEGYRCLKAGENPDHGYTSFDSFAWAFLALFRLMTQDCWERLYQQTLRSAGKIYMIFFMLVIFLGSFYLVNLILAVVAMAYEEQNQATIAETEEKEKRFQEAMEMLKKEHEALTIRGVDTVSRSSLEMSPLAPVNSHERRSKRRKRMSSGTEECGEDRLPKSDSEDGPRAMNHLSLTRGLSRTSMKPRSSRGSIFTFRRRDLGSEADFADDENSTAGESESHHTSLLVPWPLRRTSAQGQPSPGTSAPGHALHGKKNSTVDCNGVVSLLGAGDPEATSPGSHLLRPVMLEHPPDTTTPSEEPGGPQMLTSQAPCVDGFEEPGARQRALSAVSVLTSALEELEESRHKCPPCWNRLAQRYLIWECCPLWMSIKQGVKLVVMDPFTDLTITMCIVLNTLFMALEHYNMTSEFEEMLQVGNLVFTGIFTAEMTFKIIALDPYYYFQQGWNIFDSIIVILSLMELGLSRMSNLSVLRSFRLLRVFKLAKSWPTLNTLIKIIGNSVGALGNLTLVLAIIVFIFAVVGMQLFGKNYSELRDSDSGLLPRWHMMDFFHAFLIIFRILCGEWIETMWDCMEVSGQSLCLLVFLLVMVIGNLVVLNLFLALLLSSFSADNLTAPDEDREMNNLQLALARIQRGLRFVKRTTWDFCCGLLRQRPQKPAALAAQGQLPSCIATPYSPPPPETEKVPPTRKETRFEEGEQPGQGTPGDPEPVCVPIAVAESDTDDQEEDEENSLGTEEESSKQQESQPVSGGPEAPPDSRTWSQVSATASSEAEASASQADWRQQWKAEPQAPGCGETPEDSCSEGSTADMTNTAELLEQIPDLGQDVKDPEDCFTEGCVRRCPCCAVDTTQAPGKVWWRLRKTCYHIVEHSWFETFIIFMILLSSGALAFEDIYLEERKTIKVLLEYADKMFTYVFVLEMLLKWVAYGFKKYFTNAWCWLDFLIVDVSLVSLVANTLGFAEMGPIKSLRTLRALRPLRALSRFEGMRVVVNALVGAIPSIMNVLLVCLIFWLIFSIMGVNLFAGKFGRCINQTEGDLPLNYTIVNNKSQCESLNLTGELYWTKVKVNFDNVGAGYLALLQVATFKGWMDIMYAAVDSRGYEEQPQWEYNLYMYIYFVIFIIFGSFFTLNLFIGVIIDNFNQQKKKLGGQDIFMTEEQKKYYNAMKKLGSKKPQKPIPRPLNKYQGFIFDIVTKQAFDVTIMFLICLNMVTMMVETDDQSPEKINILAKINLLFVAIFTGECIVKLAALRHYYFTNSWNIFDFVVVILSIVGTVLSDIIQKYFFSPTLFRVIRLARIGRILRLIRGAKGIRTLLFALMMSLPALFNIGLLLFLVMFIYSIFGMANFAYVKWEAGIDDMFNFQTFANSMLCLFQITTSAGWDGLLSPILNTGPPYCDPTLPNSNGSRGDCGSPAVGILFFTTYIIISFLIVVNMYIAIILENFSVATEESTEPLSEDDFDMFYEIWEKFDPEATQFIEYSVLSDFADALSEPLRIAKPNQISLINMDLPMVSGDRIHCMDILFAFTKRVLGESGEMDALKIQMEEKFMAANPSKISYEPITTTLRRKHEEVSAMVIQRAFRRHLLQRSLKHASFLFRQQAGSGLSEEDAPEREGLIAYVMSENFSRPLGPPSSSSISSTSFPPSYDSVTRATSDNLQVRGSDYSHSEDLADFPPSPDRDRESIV
Protocol: IonWorks® Experimental Procedure
Compounds were tested on human Nav 1.7 and Nav 1.5 channels stably expressed in HEK 293 cells. Sodium current measurements on IonWorks Quattro: An automated patch-clamp assay on the IonWorks Quattro platform (Molecular Devices) was used to measure state-dependent inhibition of human Nav 1.7 and Nav 1.5 channels. Cells were sealed on a planar substrate using the Population Patch Plate (PPC) technology. Electrical access was obtained using both nystatin and amphotericin. A double-pulse protocol was used for the determination of IC50 values for inactivated state block. Nav 1.7 and Nav 1.5 expressing cells were voltage clamped at −100 mV and −110 mV, respectively. A depolarizing prepulse to −10 mV (Nav 1.7) or −30 mV (Nav 1.5) for 1000 ms followed by a 10 ms repolarization to ˜100 mV (Nav1.7) or −110 mV (Nav 1.5) was given to generate fractional channel inactivation of ˜50%, followed by a 10 ms test pulse to −10 mV (Nav 1.7) or −30 mV (Nav 1.5) to measure peak current in control conditions and after compound addition. The following recording solutions were used (mM). External: 150 NaCl, 2 CaCl2, 5 KCl, 1 Mg Cl2, 10 HEPES, 12 Dextrose; internal: 120 CsF, 30 CsCl, 10 EGTA, 5 HEPES, 5 NaF, 2 MgCl2.
For all electrophysiology experiments, offline analysis was used to determine percent inhibition as a function of drug concentration. IC50 values were determined by fitting to the Hill equation.
The various compounds in Examples 1 through 4 and Tables 1 through 3 exemplified above were assayed for activity and selectivity using the foregoing IonWorks® technique. The results are reported in the following paragraph in a format expressing the identification of the compound with reference Example and compound (e.g. Ex 1-9 is Example 1, compound 9) followed by the observed potency in nM and the ratio of Nav1.7 potency: Nav1.5 potency as described here. Thus, Ex1-9: 1.7=65/ratio=641 identifies compound Example 1, compound 9 as having 65 nM potency for the Nav 1.7 sodium ion channel (as measured by IonWorks®) and a ratio of 641 Nav 1.7: Nav 1.5 potency, determined by IonWorks® measurement.

[2] = biological target: T2, human Nav 1.7 channels stably expressed in HEK 293 cells (Homo sapiens, UniProt Q15858); assay: IonWorks Quattro automated patch-clamp, inactivated state block of Nav 1.7; format: cell-based; conditions: double-pulse protocol, HEK 293 cells held at -100 mV, read-out: potency for the Nav 1.7 sodium ion channel (IC50, IonWorks)
T2 construct: expressed in transfected cells; host or cells: HEK 293
T2 sequence (Q15858 whole entry): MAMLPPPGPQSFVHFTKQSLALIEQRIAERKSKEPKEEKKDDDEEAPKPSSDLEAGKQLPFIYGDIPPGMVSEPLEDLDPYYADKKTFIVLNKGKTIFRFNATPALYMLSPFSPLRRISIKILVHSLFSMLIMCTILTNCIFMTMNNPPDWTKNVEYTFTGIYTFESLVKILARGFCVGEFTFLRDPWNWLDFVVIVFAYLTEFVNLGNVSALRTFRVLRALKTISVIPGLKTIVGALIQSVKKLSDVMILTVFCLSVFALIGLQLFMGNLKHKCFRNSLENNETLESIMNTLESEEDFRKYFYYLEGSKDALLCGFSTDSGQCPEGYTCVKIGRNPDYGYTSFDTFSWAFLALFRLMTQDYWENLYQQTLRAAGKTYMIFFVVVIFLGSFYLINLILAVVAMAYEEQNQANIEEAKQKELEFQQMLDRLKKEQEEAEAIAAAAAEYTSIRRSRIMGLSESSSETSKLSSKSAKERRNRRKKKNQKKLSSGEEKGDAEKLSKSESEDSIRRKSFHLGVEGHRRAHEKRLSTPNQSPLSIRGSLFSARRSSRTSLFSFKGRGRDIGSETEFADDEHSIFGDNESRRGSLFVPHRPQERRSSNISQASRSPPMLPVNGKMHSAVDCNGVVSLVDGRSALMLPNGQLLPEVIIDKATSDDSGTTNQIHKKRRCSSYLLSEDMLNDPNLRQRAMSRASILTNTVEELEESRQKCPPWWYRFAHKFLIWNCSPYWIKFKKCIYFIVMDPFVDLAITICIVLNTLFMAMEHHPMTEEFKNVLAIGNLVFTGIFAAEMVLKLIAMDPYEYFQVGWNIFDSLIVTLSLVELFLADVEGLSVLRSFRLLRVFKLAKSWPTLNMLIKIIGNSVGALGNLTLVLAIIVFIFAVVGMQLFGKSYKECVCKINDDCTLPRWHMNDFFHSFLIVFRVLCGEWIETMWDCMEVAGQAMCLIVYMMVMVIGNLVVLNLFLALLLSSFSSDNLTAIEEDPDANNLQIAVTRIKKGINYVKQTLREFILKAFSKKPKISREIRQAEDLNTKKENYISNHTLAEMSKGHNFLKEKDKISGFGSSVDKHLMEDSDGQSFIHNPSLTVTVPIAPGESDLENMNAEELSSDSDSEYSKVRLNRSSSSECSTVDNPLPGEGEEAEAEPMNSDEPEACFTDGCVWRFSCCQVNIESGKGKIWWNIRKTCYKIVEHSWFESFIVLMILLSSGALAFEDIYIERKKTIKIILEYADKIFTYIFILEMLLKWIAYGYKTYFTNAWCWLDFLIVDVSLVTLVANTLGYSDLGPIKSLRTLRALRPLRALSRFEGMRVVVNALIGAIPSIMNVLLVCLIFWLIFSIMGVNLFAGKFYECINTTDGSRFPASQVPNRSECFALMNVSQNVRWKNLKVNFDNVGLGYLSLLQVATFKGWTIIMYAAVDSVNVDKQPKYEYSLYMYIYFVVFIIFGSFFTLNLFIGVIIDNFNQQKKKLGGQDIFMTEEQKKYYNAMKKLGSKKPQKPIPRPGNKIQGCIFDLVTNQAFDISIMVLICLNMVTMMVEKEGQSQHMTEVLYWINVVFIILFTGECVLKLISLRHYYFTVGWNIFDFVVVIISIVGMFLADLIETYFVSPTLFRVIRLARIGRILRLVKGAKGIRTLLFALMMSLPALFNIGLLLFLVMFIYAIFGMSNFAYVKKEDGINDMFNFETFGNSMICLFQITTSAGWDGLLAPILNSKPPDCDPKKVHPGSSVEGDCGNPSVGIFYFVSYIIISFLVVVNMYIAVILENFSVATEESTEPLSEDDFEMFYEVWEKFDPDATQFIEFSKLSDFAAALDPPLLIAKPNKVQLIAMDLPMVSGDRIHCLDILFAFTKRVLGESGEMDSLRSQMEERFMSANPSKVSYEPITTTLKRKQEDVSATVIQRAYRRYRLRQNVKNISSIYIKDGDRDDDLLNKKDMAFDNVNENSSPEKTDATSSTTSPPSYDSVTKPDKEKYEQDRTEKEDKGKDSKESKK
How it was run: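 Inactivated-state block was recorded by automated perforated patch (nystatin plus amphotericin) using a double-pulse protocol. Holding was −100 mV (Nav1.7) or −110 mV (Nav1.5), with a 1000 ms prepulse to −10/−30 mV giving ~50% inactivation, then a 10 ms test pulse. IC50s came from Hill fits of peak current inhibition.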

SMILES	IC50 [2]	ratio of Nav 1.7 : Nav 1.5 potency (IonWorks) [1]
CO[C@H]1CN[C@H](CNCCCCNc2cc(F)c(S(=O)(=O)Nc3nccs3)cc2Cl)C1 [Ex 8-16]	63 nM	> 520
O=S(=O)(Nc1nccs1)c1cc(Cl)c(NCCCCNC[C@H]2C[C@@H](c3ccccc3)CN2)cc1F [Ex 8-11, 5-chloro-2-fluoro-4-{[4-({[(2R,4S)-4-phenylpyrrolidin-2-yl]-methyl}amino)butyl]amino}-N-1,3-thiazol-2-yl-benzenesulfonamide]	14 nM	> 2360
COc1ccc(CC2(CNCCCCNc3cc(F)c(S(=O)(=O)Nc4nccs4)cc3Cl)CCCN2)cc1 (single isomer, unassigned) [Ex 1-16 Enantiomer B, (R or S)-5-chloro-2-fluoro-4-{[4-({[2-(4-methoxybenzyl)pyrrolidin-2-yl]methyl}amino)butyl]amino}-N-1,3-thiazol-2-ylbenzenesulfonamide]	130 nM	185
O=S(=O)(Nc1nccs1)c1cc(Cl)c(NCCCCN2CCC3CCC(C2)N3)cc1F (stereo not shown) [Ex 1-52, 5-chloro-4-{[4-(3,9-diazabicyclo[4.2.1]non-3-yl)butyl]amino}-2-fluoro-N-1,3-thiazol-2-ylbenzenesulfonamide]	96 nM	> 343
COc1ccc(CC2(CNCCCCNc3cc(F)c(S(=O)(=O)Nc4nccs4)cc3Cl)CCCN2)cc1 (single isomer, unassigned) [Ex 1-16 Enantiomer A, (S or R)-5-chloro-2-fluoro-4-{[4-({[2-(4-methoxybenzyl)pyrrolidin-2-yl]methyl}amino)butyl]amino}-N-1,3-thiazol-2-ylbenzenesulfonamide]	240 nM	50
O=S(=O)(Nc1nccs1)c1cc(Cl)c(NCCCCCNCC2CCCNC2)cc1F (stereo not shown) [Ex 9-04, 5-chloro-2-fluoro-4-({5-[(piperidin-3-ylmethyl)-amino]-pentyl}amino)-N-1,3-thiazol-2-yl-benzenesulfonamide]	25 nM	> 1320
O=S(=O)(Nc1nccs1)c1cc(Cl)c(NCCCCN[C@@H]2[C@H]3CC[C@@H]2NC3)cc1F [Ex 1-25, 4-({4-[(1S,4S,7R)-2-azabicyclo[2.2.1]hept-7-ylamino]butyl}amino)-5-chloro-2-fluoro-N-1,3-thiazol-2-ylbenzenesulfonamide]	21 nM	> 1590
O=S(=O)(Nc1nccs1)c1cc(Cl)c(NCCCCNC2C[C@@H]3C[C@H]2CN3)cc1F (stereo partly drawn) [Ex 1-24, 4-({4-[(1S,4S)-2-azabicyclo[2.2.1]hept-5-ylamino]butyl}amino)-5-chloro-2-fluoro-N-1,3-thiazol-2-ylbenzenesulfonamide]	17 nM	> 1940
O=S(=O)(Nc1nccs1)c1cc(Cl)c(NCCCCN2CCCC3(CCCN3)C2)cc1F (stereo not shown) [Ex 1-39, 5-chloro-4-{[4-(1,7-diazaspiro[4.5]dec-7-yl)butyl]amino}-2-fluoro-N-1,3-thiazol-2-ylbenzenesulfonamide]	130 nM	> 250
NCC1CN(CCCCNc2cc(F)c(S(=O)(=O)Nc3nccs3)cc2Cl)C1 [Ex 1-51, 4-({4-[3 (aminomethyl)azetidin-1-yl]butyl}amino)-5-chloro-2-fluoro-N-1,3-thiazol-2-ylbenzenesulfonamide]	15 nM	> 2200
O=S(=O)(Nc1nccs1)c1cc(Cl)c(NCCCCN[C@H]2[C@@H]3CC[C@H]2NC3)cc1F [Ex 1-17, 4-({4-[(1R,4R,7S)-2-azabicyclo[2.2.1]hept-7-ylamino]butyl}amino)-5-chloro-2-fluoro-N-1,3-thiazol-2-ylbenzenesulfonamide]	60 nM	> 550
NC[C@H]1CCCN1CCCCNc1cc(F)c(S(=O)(=O)Nc2nccs2)cc1Cl [Ex 1-41, 4-({4-[(2R)-2-(aminomethyl)pyrrolidin-1-yl]butyl}amino)-5-chloro-2-fluoro-N-1,3-thiazol-2-ylbenzenesulfonamide]	48 nM	> 690
N[C@H]1CCCN(CCCCNc2cc(F)c(S(=O)(=O)Nc3nccs3)cc2Cl)C1 [Ex 1-37, 4-({4-[(3S)-3-aminopiperidin-1-yl]butyl}amino)-5-chloro-2-fluoro-N-1,3-thiazol-2-ylbenzenesulfonamide]	97 nM	> 340
O=S(=O)(Nc1nccs1)c1cc(Cl)c(NCCCCNC[C@@H]2C[C@H](Oc3ccccc3)CN2)cc1F [Ex 8-5, 5-chloro-2-fluoro-4-{[4-({[(2S,4S)-4-phenoxypyrrolidin-2-yl]methyl}amino)butyl]-amino}-N-1,3-thiazol-2-yl-benzenesulfonamide]	40 nM	425
NCC1(c2ccccc2)CCN(CCCCNc2cc(F)c(S(=O)(=O)Nc3nccs3)cc2Cl)C1 (stereo not shown) [Ex 1-50, 4-({4-[3-(aminomethyl)-3-phenylpyrrolidin-1-yl]butyl}amino)-5-chloro-2-fluoro-N-1,3-thiazol-2-ylbenzenesulfonamide]	46 nM	> 717
O=S(=O)(Nc1nccs1)c1cc(Cl)c(NCCCCN2C[C@H]3CNCC[C@H]3C2)cc1F [Ex 1-23, 5-chloro-2-fluoro-4-({4-[(3aR,7aR)-octahydro-2H-pyrrolo[3,4-c]pyridin-2-yl]butyl}amino)-N-1,3-thiazol-2-ylbenzenesulfonamide]	43 nM	> 770

Second part, led by results:

IC50 [2]	SMILES	ratio of Nav 1.7 : Nav 1.5 potency (IonWorks) [1]
15 nM	NC[C@@H]1CCN1CCCCNc1cc(F)c(S(=O)(=O)Nc2ncc(F)s2)cc1Cl [Ex 16-11, 4-({4-[(2S)-2-(aminomethyl)azetidin-1-yl]-butyl}amino)-5-chloro-2-fluoro-N-(5-fluoro-1,3-thiazol-2-yl)-benzene-sulfonamide]	> 1530
20 nM	NC[C@H]1CCN1CCCCNc1cc(F)c(S(=O)(=O)Nc2ncns2)cc1Cl [Ex 16-02, 4-({4-[(2R)-2-(aminomethyl)-azetidin-1-yl]butyl}amino)-5-chloro-2-fluoro-N-1,2,4-thiadiazol-5-yl-benzene-sulfonamide]	> 1650
78 nM	O=S(=O)(Nc1nccs1)c1cc(Cl)c(NCC(CCNC[C@@H]2CCCN2)c2ccccc2)cc1F (stereo partly drawn) [Ex 10-3, 5-chloro-2-fluoro-4-((2-phenyl-4-(((S)-pyrrolidin-2-ylmethyl)amino)butyl)amino)-N-(thiazol-2-yl)benzenesulfonamide]	> 423
74 nM	CNCCNCCCCNc1cc(F)c(S(=O)(=O)Nc2ncns2)cc1F [Ex 16-47, 2,5-difluoro-4-[(4-{[2-(methylamino)ethyl]amino}-butyl)amino]-N-1,2,4-thiadiazol-5-ylbenzene-sulfonamide]	> 460
14 nM	O=S(=O)(Nc1ncc(F)s1)c1cc(Cl)c(NCCCCN2C[C@H]3CCCN[C@H]3C2)cc1F [Ex 16-23, 5-chloro-2-fluoro-N-(5-fluoro-1,3-thiazol-2-yl)-4-({4-[(4aR,7aR)-octahydro-6H-pyrrolo[3,4-b]pyridin-6-yl]butyl}amino)benzene-sulfonamide]	> 2357
35 nM	CNCCNCCCCNc1cc(F)c(S(=O)(=O)Nc2nc(C)cs2)cc1Cl [Ex 16-51, 5-chloro-2-fluoro-4-[(4-{[2-(methylamino)ethyl]amino}-butyl)amino]-N-(4-methyl-1,3-thiazol-2-yl)benzene-sulfonamide]	> 943
36 nM	N#Cc1cc(S(=O)(=O)Nc2nccs2)c(F)cc1NCCCCN[C@@H]1CCNC1 [Ex 16-39, 5-cyano-2-fluoro-4-({4-[(3R)-pyrrolidin-3-ylamino]-butyl}amino)-N-1,3-thiazol-2-yl-benzenesulfonamide]	> 917
